Columns and labels:
[1] = system: U2OS, human osteocarcinoma; experiment: Growth inhibition by MTS method, U2OS; format: cell-based; details: 48 hours with compound, read-out: GI50 against U2OS
Procedure: (§1) Growth inhibition tests were carried out by MTS method. Approximately 72 hours before the viability assay, cells were seeded into 96-well plates at 5-10×10^3 cells/well (according to the growth rate of individual cell lines used). 24 hours later, the tested compounds at different concentrations were added, and the cells were cultured for 48 hours, then added 20 μl/well of CellTiter 96 AQueous One Solution Reagent containing tetrazolium compound (Promega) into each well. MTS was subsequently added to the culture medium. After incubation of the plates for 2 hours at about 37° C., the absorbance at 490 nm was recorded by a 96-well plate reader. Cell viability was calculated by Atreatment/Acontrol×100% (A represents the absorbance recorded at 490 nm). […] All of the compounds were dissolved in DMSO and were added to the culture at a 1:1000 dilution to give a final DMSO concentration of ≦0.1%. All samples were assayed in duplicate, and each experiment was repeated at least three times.

[2] = system: Raji, human Burkitts Lymphoma; experiment: Growth inhibition by MTS method, Raji; format: cell-based; details: 48 hours with compound, read-out: GI50 against Raji
Procedure: as §1

[3] = system: DU-145, human prostate cancer; experiment: Growth inhibition by MTS method, DU-145; format: cell-based; details: 48 hours with compound, read-out: GI50 against DU-145
Procedure: as §1

[4] = system: LNCaP, human prostate cancer; experiment: Growth inhibition by MTS method, LNCaP; format: cell-based; details: 48 hours with compound, read-out: GI50 against LNCaP
Procedure: as §1

H292, human lung cancer = experiment: Growth inhibition by MTS method, H292; format: cell-based; details: NCI-H292, 48 hours with compound, read-out: GI50 against H292
Procedure: as §1

[5] = system: SMMC-7721, human hepatoma; experiment: Growth inhibition by MTS method, SMMC-7721; format: cell-based; details: SMMC-721, 48 hours with compound, read-out: GI50 against SMMC-721
Procedure: as §1

[6] = system: Jurkat, human T cell leukemia; experiment: Growth inhibition by MTS method, Jurkat; format: cell-based; details: 48 hours with compound, read-out: GI50 against Jurkat
Procedure: as §1

[7] = system: HeLa, human cervical carcinoma; experiment: Growth inhibition by MTS method, HeLa; format: cell-based; details: 48 hours with compound, read-out: GI50 against HeLa
Procedure: as §1

[8] = system: MCF-7, human breast adenocarcinoma; experiment: Growth inhibition by MTS method, MCF-7; format: cell-based; details: MCF7, 48 hours with compound, read-out: GI50 against MCF-7
Procedure: as §1

28SC, human macrophage = experiment: Growth inhibition by MTS method, 28SC; format: cell-based; details: 48 hours with compound, read-out: GI50 against 28SC
Procedure: as §1

[9] = system: SK-OV-3, human ovary adenocarcinoma; experiment: Growth inhibition by MTS method, SK-OV-3; format: cell-based; details: 48 hours with compound, read-out: GI50 against SK-OV-3
Procedure: as §1

[10] = system: HDAC (extract from HeLa cells containing HDAC activity); experiment: HDAC colorimetric activity assay kit (BIOMOL), HeLa cell extract; format: biochemical, human
Procedure: Briefly, the tested compounds at different concentrations were added to 96-well plates, then mixed with extract from HeLa cells containing HDAC activity provided by the manufacturer. HDAC reactions were initiated by adding substrate. 10 minutes later, the reactions were stopped by addition of Color De Lys Developer. Microplates were read in a plate reader at 405 nm. Inhibition of HDAC activity was calculated following the instructions.

[11] = system: SGC-7901, human gastric adenocarcinoma; experiment: Growth inhibition by MTS method, SGC-7901; format: cell-based; details: 48 hours with compound, read-out: GI50 against SGC-7901
Procedure: as §1

[12] = system: MDA-MB-231, human breast adenocarcinoma; experiment: Growth inhibition by MTS method, MDA-MB-231; format: cell-based; details: 48 hours with compound, read-out: GI50 against 231
Procedure: as §1

[13] = system: SK-N-SH, human neuroblastoma; experiment: Growth inhibition by MTS method, SK-N-SH; format: cell-based; details: 48 hours with compound, read-out: GI50 against SK-N-SH
Procedure: as §1

[14] = system: PANC-1, human pancreatic ductal carcinoma; experiment: Growth inhibition by MTS method, PANC-1; format: cell-based; details: 48 hours with compound, read-out: GI50 against PANC-1
Procedure: as §1

[15] = system: 293, human embryonic kidney; experiment: Growth inhibition by MTS method, 293; format: cell-based; details: 48 hours with compound, read-out: GI50 against 293
Procedure: as §1

[16] = system: HepG2, human hepatoblastoma; experiment: Growth inhibition by MTS method, HepG2; format: cell-based; details: 48 hours with compound, read-out: GI50 against HepG2
Procedure: as §1

[17] = system: HL-60, human myloid leukemia; experiment: Growth inhibition by MTS method, HL-60; format: cell-based; details: 48 hours with compound, read-out: GI50 against HL-60
Procedure: as §1

Compound	GI50 [1] [µM]	GI50 [2] [µM]	GI50 [3] [µM]	GI50 [4] [µM]	GI50 (H292, human lung cancer) [µM]	GI50 [5] [µM]	GI50 [6] [µM]	GI50 [7] [µM]	GI50 [8] [µM]	GI50 (28SC, human macrophage) [µM]	GI50 [9] [µM]	GI50 [11] [µM]	GI50 [12] [µM]	GI50 [13] [µM]	GI50 [14] [µM]	GI50 [15] [µM]	GI50 [16] [µM]	GI50 [17] [µM]	other results
Nc1ccccc1NC(=O)c1ccc(CNc2ccc(F)cc2)cc1 [CS02100019, N-(2-aminophenyl)-4-[N-(4-fluorophenyl)aminomethyl]benzamide]	2.5	2	50	10	50	50	1	50	5	2	50	50	7.9	50	5	25	3.2	0.5	IC50 ([10]; HDAC activity, HeLa extract): > 50 µM; % of inhibition of HDAC activity ([10]; concentration 1 μM): 11.3%; % of inhibition of HDAC activity ([10]; concentration 5 μM): 24.9%; % of inhibition of HDAC activity ([10]; concentration 10 μM): 28.4%; % of inhibition of HDAC activity ([10]; concentration 50 μM): 29.8%
Nc1cc(F)ccc1NC(=O)c1ccc(CNC(=O)/C=C/c2cccnc2)cc1 [CS02100055, N-(2-amino-4-fluorophenyl)-4-[N-(Pyridin-3-ylacryloyl)aminomethyl]benzamide]	2	4	25	4	50	16	1.5	40	5	5.8	50	50	7.9	50	6.3	50	4	0.4	
Nc1ccccc1NC(=O)c1ccc(CNC(=O)OCc2cccnc2)cc1 [MS-275, N-(2-aminophenyl)-4-[N-(pyridin-3-ylmethoxycarbonyl)aminomethyl]benzamide, reference compound]	1	6.3	13	2.5	16	20	1.6	25	6.3	4	50	50	5	50	5	16	3.2	0.32	

From patent US7244751B2, “Histone deacetylase inhibitors of novel benzamide derivatives with potent differentiation and anti-proliferation activity” (Shenzhen Chipscreen Biosciences Ltd., priority 2003, dated 2007)
